Experiments:
Type in all cases: cell-based
RAR alpha = target: T1, RAR alpha (Homo sapiens, UniProt P10276); assay: Transactivation test (luciferase reporter, HeLa cells), RAR alpha; conditions: HeLa stable transfectants; for Kd: Schild regression against reference agonist 4-[2-(5,5,8,8-tetramethyl-5,6,7,8-tetrahydro-2-naphthyl)propenyl]benzoic acid, read-out: RAR alpha Kdapp; for IC50: reference ligand at the concentration that gives 80% activation
T1 sequence (P10276 183-417 limits assumed): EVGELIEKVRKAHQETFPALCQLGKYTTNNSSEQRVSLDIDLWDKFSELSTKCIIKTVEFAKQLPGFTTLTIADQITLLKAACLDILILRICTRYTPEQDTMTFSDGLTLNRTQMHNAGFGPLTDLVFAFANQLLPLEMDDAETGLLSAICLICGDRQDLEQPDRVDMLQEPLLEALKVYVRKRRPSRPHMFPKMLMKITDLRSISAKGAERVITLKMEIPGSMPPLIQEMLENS
Description: (§1) The activation of receptors with an agonist (activator) in HeLa cells leads to the expression of a reporter gene, luciferase, which, in the presence of a substrate, generates light. The activation of the receptors may thus be measured by quantifying the luminescence produced after incubating the cells in the presence of a reference agonist. The inhibitory products displace the agonist from its site, thus preventing activation of the receptor. The activity is measured by quantifying the reduction in light produced. This measurement makes it possible to determine the inhibitory activity of the compounds according to the invention.
(§2) Determination of the Kdapp:
(§3) In this study, a constant is determined which represents the affinity of the molecule for the receptor. Since this value can fluctuate depending on the basal activity and the expression of the receptor, it is referred to as the Kdapparent (KdApp).
(§4) To determine this constant, “crossed curves” of the test product against a reference agonist, 4-[2-(5,5,8,8-tetramethyl-5,6,7,8-tetrahydro-2-naphthyl)propenyl]benzoic acid, are performed in 96-well plates. The test product is used at 10 concentrations and the reference agonist at 7 concentrations. In each well, the cells are in contact with a concentration of the test product and a concentration of the reference agonist, 4-[2-(5,5,8,8-tetramethyl-5,6,7,8-tetrahydro-2-naphthyl)propenyl]benzoic acid. Measurements are also taken for the total agonist (4-[2-(5,5,8,8-tetramethyl-5,6,7,8-tetrahydro-2-naphthyl)propenyl]benzoic acid) and inverse agonist, 4-{(E)-3-[4-(4-tert-butylphenyl)-5,5,8,8-tetramethyl-5,6,7,8-tetrahydro-2-naphthyl]-3-oxopropenyl}benzoic acid, controls.
(§5) These crossed curves make it possible to determine the AC50 values (concentration at which 50% activation is observed) for the reference ligand at various concentrations of test product. These AC50 values are used to calculate the Schild regression by plotting a straight line corresponding to the Schild equation (“quantitation in receptor pharmacology” Terry P. Kenakin, Receptors and Channels, 2001, 7, 371-385).
(§6) In the case of an antagonist, an IC50 value (concentration that inhibits 50% of the activity) is calculated by plotting the curve of the product at the concentration of the reference ligand that gives 80% activation.
(§7) The HeLa cell lines used are stable transfectants containing the plasmids ERE-βGlob-Luc-SV-Neo (reporter gene) and RAR (α, β, γ) ER-DBD-puro. These cells are inoculated into 96-well plates at a rate of 10 000 cells per well in 100 μl of DMEM medium without phenol red, and supplemented with 10% defatted calf serum. The plates are then incubated at 37° C. and 7% CO2 for 4 hours.
(§8) The various dilutions of the test products, of the reference ligand (4-[2-(5,5,8,8-tetramethyl-5,6,7,8-tetrahydro-2-naphthyl)propenyl]benzoic acid), of the 100% control (100 nM 4-[2-(5,5,8,8-tetramethyl-5,6,7,8-tetrahydro-2-naphthyl)propenyl]benzoic acid) and of the 0% control (500 nM 4-{(E)-3-[4-(4-tert-butylphenyl)-5,5,8,8-tetramethyl-5,6,7,8-tetrahydro-2-naphthyl]-3-oxopropenyl}benzoic acid) are added at a rate of 5 μl per well. The plates are then incubated for 18 hours at 37° C. and 7% CO2.
(§9) The culture medium is removed by turning over and 100 μl of a 1:1 PBS/luciferine mixture is added to each well. After 5 minutes, the plates are read using the luminescence detector.

RAR beta = target: T2, RAR beta (Homo sapiens, UniProt P10826); assay: Transactivation test (luciferase reporter, HeLa cells), RAR beta; conditions: HeLa stable transfectants; for Kd: Schild regression against reference agonist 4-[2-(5,5,8,8-tetramethyl-5,6,7,8-tetrahydro-2-naphthyl)propenyl]benzoic acid, read-out: RAR beta Kdapp; for IC50: reference ligand at the concentration that gives 80% activation
T2 sequence (P10826 183-417 limits assumed): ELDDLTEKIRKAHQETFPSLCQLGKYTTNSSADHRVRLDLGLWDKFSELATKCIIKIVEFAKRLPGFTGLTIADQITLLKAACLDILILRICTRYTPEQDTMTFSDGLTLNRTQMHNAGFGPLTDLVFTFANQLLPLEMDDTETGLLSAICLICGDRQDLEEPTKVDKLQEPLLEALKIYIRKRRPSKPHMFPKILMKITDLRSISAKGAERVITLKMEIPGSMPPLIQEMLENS
Description: as §1, §2, §3, §4, §5, §6, §7, §8, §9

RAR gamma = target: T3, RAR gamma (Homo sapiens, UniProt P13631); assay: Transactivation test (luciferase reporter, HeLa cells), RAR gamma; conditions: HeLa stable transfectants; for Kd: Schild regression against reference agonist 4-[2-(5,5,8,8-tetramethyl-5,6,7,8-tetrahydro-2-naphthyl)propenyl]benzoic acid, read-out: RAR gamma Kdapp; for IC50: reference ligand at the concentration that gives 80% activation
T3 sequence (P13631 185-419 limits assumed): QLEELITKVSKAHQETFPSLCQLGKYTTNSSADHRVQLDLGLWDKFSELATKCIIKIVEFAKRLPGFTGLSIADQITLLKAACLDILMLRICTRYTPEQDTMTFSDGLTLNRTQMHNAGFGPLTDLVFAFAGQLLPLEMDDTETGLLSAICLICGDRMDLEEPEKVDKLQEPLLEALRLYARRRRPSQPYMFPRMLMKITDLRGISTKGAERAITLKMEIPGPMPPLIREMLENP
Description: as §1, §2, §3, §4, §5, §6, §7, §8, §9

Row | SMILES | Kd (RAR alpha) [nM] | IC50 (RAR alpha) [nM] | Kd (RAR beta) [nM] | IC50 (RAR beta) [nM] | Kd (RAR gamma) [nM] | IC50 (RAR gamma) [nM]
1 | CC1(C)CCC(C)(C)c2c(OCc3ccc(F)cc3)cc([Se]C#Cc3ccc(C(=O)O)cc3)cc21 [Ex 11, 4-[5,5,8,8-tetramethyl-4-(4-fluorobenzyloxy)-5,6,7,8-tetrahydro-2-naphthylselanylethynyl]benzoic acid] | 8 | 14 | 4 | 6.4 | 1 | 2.5
2 | CC1(C)CCC(C)(C)c2c(OCc3ccc(F)cc3F)cc([Se]C#Cc3ccc(C(=O)O)cc3)cc21 [Ex 5, 4-[4-(2,4-difluorobenzyloxy)-5,5,8,8-tetramethyl-5,6,7,8-tetrahydro-2-naphthylselanylethynyl]benzoic acid] | 2 | 3.5 | 1 | 1.6 | 1 | 2.5
3 | CC1(C)CCC(C)(C)c2c(OCc3ccc(F)c(F)c3)cc([Se]C#Cc3ccc(C(=O)O)cc3)cc21 [Ex 4, 4-[4-(3,4-difluorobenzyloxy)-5,5,8,8-tetramethyl-5,6,7,8-tetrahydro-2-naphthylselanylethynyl]benzoic acid] | 2 | 3.5 | 4 | 6.4 | 1 | 2.5

Other lines, results leading:

Row | Kd (RAR alpha) [nM] | IC50 (RAR alpha) [nM] | Kd (RAR beta) [nM] | IC50 (RAR beta) [nM] | Kd (RAR gamma) [nM] | IC50 (RAR gamma) [nM] | SMILES
4 | 15 | 26.3 | 30 | 48 | 4 | 10 | CC(C)(C)c1ccc(COc2cc([Se]C#Cc3ccc(C(=O)O)cc3)cc3c2C(C)(C)CCC3(C)C)cc1 [Ex 3, 4-[4-(4-tert-butylbenzyloxy)-5,5,8,8-tetramethyl-5,6,7,8-tetrahydro-2-naphthylselanylethynyl]benzoic acid]
5 | 8 | 14 | 4 | 6.5 | 2 | 5 | CC1(C)CCC(C)(C)c2c(OCc3cccc(F)c3)cc([Se]C#Cc3ccc(C(=O)O)cc3)cc21 [Ex 1, 4-[4-(3-fluorobenzyloxy)-5,5,8,8-tetramethyl-5,6,7,8-tetrahydro-2-naphthylselanylethynyl]benzoic acid]
6 | 30 | 52.5 | 15 | 24 | 4 | 10 | Cc1cccc(COc2cc([Se]C#Cc3ccc(C(=O)O)cc3)cc3c2C(C)(C)CCC3(C)C)c1 [Ex 10, 4-[5,5,8,8-tetramethyl-4-(3-methylbenzyloxy)-5,6,7,8-tetrahydro-2-naphthylselanylethynyl]benzoic acid]
